{
  "source": "ChEMBL document CHEMBL1201862",
  "about": "“PubChem BioAssay data set” (2004)",
  "assay_in_all_cases": "NCI-60 cell line screen, 48 h",
  "key": {"UACC-62": {"test_system": "UACC-62"}, "ACHN": {"test_system": "ACHN"}, "OVCAR-5": {"test_system": "OVCAR-5"}, "SNB-19": {"test_system": "SNB-19"}, "OVCAR-8": {"test_system": "OVCAR-8"}, "SK-MEL-5": {"test_system": "SK-MEL-5"}, "HCT-116": {"test_system": "HCT-116"}, "DU-145": {"test_system": "DU-145"}, "HOP-62": {"test_system": "HOP-62"}, "A549": {"test_system": "A549"}, "SF-295": {"test_system": "SF-295"}, "786-0": {"test_system": "786-0"}, "HCT-15": {"test_system": "HCT-15"}, "UACC-257": {"test_system": "UACC-257"}, "COLO 205": {"test_system": "COLO 205"}, "MCF7": {"test_system": "MCF7"}, "K562": {"test_system": "K562"}, "CAKI-1": {"test_system": "CAKI-1"}, "BT-549": {"test_system": "BT-549"}, "RPMI-8226": {"test_system": "RPMI-8226"}, "SK-MEL-2": {"test_system": "SK-MEL-2"}, "NCI-H23": {"test_system": "NCI-H23"}, "PC-3": {"test_system": "PC-3"}, "KM12": {"test_system": "KM12"}, "UO-31": {"test_system": "UO-31"}, "MOLT-4": {"test_system": "MOLT-4"}, "MDA-N": {"test_system": "MDA-N"}, "OVCAR-3": {"test_system": "OVCAR-3"}, "SK-OV-3": {"test_system": "SK-OV-3"}, "MDA-MB-231": {"test_system": "MDA-MB-231"}, "NCI-H522": {"test_system": "NCI-H522"}, "NCI-H460": {"test_system": "NCI-H460"}, "SW-620": {"test_system": "SW-620"}, "IGROV-1": {"test_system": "IGROV-1"}, "HT-29": {"test_system": "HT-29"}, "SR": {"test_system": "SR"}, "SF-539": {"test_system": "SF-539"}, "RXF 393": {"test_system": "RXF 393"}, "HCC 2998": {"test_system": "HCC 2998"}, "M14": {"test_system": "M14"}, "NCI/ADR-RES": {"test_system": "NCI/ADR-RES"}, "Hs-578T": {"test_system": "Hs-578T"}, "HOP-92": {"test_system": "HOP-92"}, "SNB-75": {"test_system": "SNB-75"}, "MDA-MB-435": {"test_system": "MDA-MB-435"}, "CCRF-CEM": {"test_system": "CCRF-CEM"}, "U-251": {"test_system": "U-251"}, "A498": {"test_system": "A498"}, "LOX IMVI": {"test_system": "LOX IMVI"}, "NCI-H226": {"test_system": "NCI-H226"}, "OVCAR-4": {"test_system": "OVCAR-4"}, "Malme-3M": {"test_system": "Malme-3M"}, "SF-268": {"test_system": "SF-268"}, "SN12C": {"test_system": "SN12C"}, "EKVX": {"test_system": "EKVX"}, "TK-10": {"test_system": "TK-10"}, "SK-MEL-28": {"test_system": "SK-MEL-28"}},
  "note": "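A five-concentration, 48-hour dose response in 96-well plates underlies each endpoint, interpolated linearly between surrounding concentrations. The concentration for 50% growth inhibition is given as GI50.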 Calls of active or inactive are those of the source. Cut-off read from the data, not from the text of the source: active = GI50 up to about 1.1 µM and inactive = higher.",
  "data": [
    {"compound": "Cc1ccc(Cl)c2c(=O)c3ccc([N+](=O)[O-])cc3sc12", "values": [
      {"measurement": "GI50", "setting": "UACC-62", "value": "> 100 µM (inactive)"},
      {"measurement": "GI50", "setting": "ACHN", "value": "> 100 µM (inactive)"},
      {"measurement": "GI50", "setting": "OVCAR-5", "value": "> 100 µM (inactive)"},
      {"measurement": "GI50", "setting": "SNB-19", "value": "> 100 µM (inactive)"},
      {"measurement": "GI50", "setting": "OVCAR-8", "value": "> 100 µM (inactive)"},
      {"measurement": "GI50", "setting": "SK-MEL-5", "value": "> 100 µM (inactive)"},
      {"measurement": "GI50", "setting": "HCT-116", "value": "> 100 µM (inactive)"},
      {"measurement": "GI50", "setting": "DU-145", "value": "> 100 µM (inactive)"},
      {"measurement": "GI50", "setting": "HOP-62", "value": "79.8 µM (inactive)"},
      {"measurement": "GI50", "setting": "A549", "value": "> 100 µM (inactive)"},
      {"measurement": "GI50", "setting": "SF-295", "value": "82.2 µM (inactive)"},
      {"measurement": "GI50", "setting": "786-0", "value": "> 100 µM (inactive)"},
      {"measurement": "GI50", "setting": "HCT-15", "value": "> 100", "unit": "µM"},
      {"measurement": "GI50", "setting": "UACC-257", "value": "> 100 µM (inactive)"},
      {"measurement": "GI50", "setting": "COLO 205", "value": "> 100 µM (inactive)"},
      {"measurement": "GI50", "setting": "MCF7", "value": "> 100 µM (inactive)"},
      {"measurement": "GI50", "setting": "K562", "value": "> 100 µM (inactive)"},
      {"measurement": "GI50", "setting": "CAKI-1", "value": "> 100 µM (inactive)"},
      {"measurement": "GI50", "setting": "BT-549", "value": "> 100 µM (inactive)"},
      {"measurement": "GI50", "setting": "RPMI-8226", "value": "> 100 µM (inactive)"},
      {"measurement": "GI50", "setting": "SK-MEL-2", "value": "> 100 µM (inactive)"},
      {"measurement": "GI50", "setting": "NCI-H23", "value": "> 100 µM (inactive)"},
      {"measurement": "GI50", "setting": "PC-3", "value": "> 100 µM (inactive)"},
      {"measurement": "GI50", "setting": "KM12", "value": "> 100 µM (inactive)"},
      {"measurement": "GI50", "setting": "UO-31", "value": "> 100 µM (inactive)"},
      {"measurement": "GI50", "setting": "MOLT-4", "value": "> 100 µM (inactive)"},
      {"measurement": "GI50", "setting": "MDA-N", "value": "> 100 µM (inactive)"},
      {"measurement": "GI50", "setting": "OVCAR-3", "value": "> 100 µM (inactive)"}
    ]},
    {"compound": "COc1ccc(-c2oc3cc(-c4cc5oc(-c6ccc(OC)cc6)c(-c6ccc(OC)cc6)c5cc4OC)c(OC)cc3c2-c2ccc(OC)cc2)cc1", "values": [
      {"measurement": "GI50", "setting": "UACC-62", "value": "> 100 µM (inactive)"},
      {"measurement": "GI50", "setting": "ACHN", "value": "> 100 µM (inactive)"},
      {"measurement": "GI50", "setting": "OVCAR-5", "value": "> 100 µM (inactive)"},
      {"measurement": "GI50", "setting": "SK-OV-3", "value": "> 100 µM (inactive)"},
      {"measurement": "GI50", "setting": "MDA-MB-231", "value": "> 100 µM (inactive)"},
      {"measurement": "GI50", "setting": "NCI-H522", "value": "> 100 µM (inactive)"},
      {"measurement": "GI50", "setting": "NCI-H460", "value": "> 100 µM (inactive)"},
      {"measurement": "GI50", "setting": "SW-620", "value": "> 100 µM (inactive)"},
      {"measurement": "GI50", "setting": "IGROV-1", "value": "> 100 µM (inactive)"},
      {"measurement": "GI50", "setting": "HT-29", "value": "> 100 µM (inactive)"},
      {"measurement": "GI50", "setting": "SNB-19", "value": "> 100 µM (inactive)"},
      {"measurement": "GI50", "setting": "OVCAR-8", "value": "> 100 µM (inactive)"},
      {"measurement": "GI50", "setting": "SR", "value": "> 100 µM (inactive)"},
      {"measurement": "GI50", "setting": "SF-539", "value": "> 100 µM (inactive)"},
      {"measurement": "GI50", "setting": "RXF 393", "value": "> 100 µM (inactive)"},
      {"measurement": "GI50", "setting": "HCC 2998", "value": "> 100 µM (inactive)"},
      {"measurement": "GI50", "setting": "M14", "value": "> 100 µM (inactive)"},
      {"measurement": "GI50", "setting": "SK-MEL-5", "value": "> 100 µM (inactive)"},
      {"measurement": "GI50", "setting": "NCI/ADR-RES", "value": "> 100 µM (inactive)"},
      {"measurement": "GI50", "setting": "HCT-116", "value": "> 100 µM (inactive)"},
      {"measurement": "GI50", "setting": "Hs-578T", "value": "> 100 µM (inactive)"},
      {"measurement": "GI50", "setting": "DU-145", "value": "> 100 µM (inactive)"},
      {"measurement": "GI50", "setting": "HOP-62", "value": "> 100 µM (inactive)"},
      {"measurement": "GI50", "setting": "A549", "value": "> 100 µM (inactive)"},
      {"measurement": "GI50", "setting": "HOP-92", "value": "> 100 µM (inactive)"},
      {"measurement": "GI50", "setting": "SF-295", "value": "> 100 µM (inactive)"},
      {"measurement": "GI50", "setting": "786-0", "value": "> 100 µM (inactive)"},
      {"measurement": "GI50", "setting": "HCT-15", "value": "> 100", "unit": "µM"},
      {"measurement": "GI50", "setting": "UACC-257", "value": "> 100 µM (inactive)"},
      {"measurement": "GI50", "setting": "COLO 205", "value": "> 100 µM (inactive)"},
      {"measurement": "GI50", "setting": "MCF7", "value": "> 100 µM (inactive)"},
      {"measurement": "GI50", "setting": "SNB-75", "value": "> 100 µM (inactive)"},
      {"measurement": "GI50", "setting": "K562", "value": "> 100 µM (inactive)"},
      {"measurement": "GI50", "setting": "MDA-MB-435", "value": "> 100 µM (inactive)"},
      {"measurement": "GI50", "setting": "CCRF-CEM", "value": "> 100 µM (inactive)"},
      {"measurement": "GI50", "setting": "U-251", "value": "> 100 µM (inactive)"},
      {"measurement": "GI50", "setting": "A498", "value": "> 100 µM (inactive)"},
      {"measurement": "GI50", "setting": "CAKI-1", "value": "> 100 µM (inactive)"},
      {"measurement": "GI50", "setting": "LOX IMVI", "value": "> 100 µM (inactive)"},
      {"measurement": "GI50", "setting": "NCI-H226", "value": "> 100 µM (inactive)"},
      {"measurement": "GI50", "setting": "OVCAR-4", "value": "> 100 µM (inactive)"},
      {"measurement": "GI50", "setting": "Malme-3M", "value": "> 100 µM (inactive)"},
      {"measurement": "GI50", "setting": "BT-549", "value": "> 100 µM (inactive)"},
      {"measurement": "GI50", "setting": "RPMI-8226", "value": "> 100 µM (inactive)"},
      {"measurement": "GI50", "setting": "SF-268", "value": "> 100 µM (inactive)"},
      {"measurement": "GI50", "setting": "NCI-H23", "value": "> 100 µM (inactive)"},
      {"measurement": "GI50", "setting": "SN12C", "value": "> 100 µM (inactive)"},
      {"measurement": "GI50", "setting": "PC-3", "value": "> 100 µM (inactive)"},
      {"measurement": "GI50", "setting": "KM12", "value": "> 100 µM (inactive)"},
      {"measurement": "GI50", "setting": "UO-31", "value": "> 100 µM (inactive)"},
      {"measurement": "GI50", "setting": "EKVX", "value": "> 100 µM (inactive)"},
      {"measurement": "GI50", "setting": "TK-10", "value": "> 100 µM (inactive)"},
      {"measurement": "GI50", "setting": "MOLT-4", "value": "> 100 µM (inactive)"},
      {"measurement": "GI50", "setting": "MDA-N", "value": "> 100 µM (inactive)"},
      {"measurement": "GI50", "setting": "OVCAR-3", "value": "> 100 µM (inactive)"},
      {"measurement": "GI50", "setting": "SK-MEL-28", "value": "> 100 µM (inactive)"}
    ]}
  ]
}
